1 compound from US11478008B2, “Formulations comprising ratfish liver oil or a product of an enzymatic or chemical glycerolysis processing of ratfish liver oil and supercritical rosemary extract and uses thereof” (UNIVERSIDAD AUTÓNOMA DE MADRID, priority 2016, dated 2022) can be followed below.

The subject of the assay is human pancreatic cancer cell cultures (line MiaPaca-2). The experiment in a line: MTT cell viability assay, human pancreatic cancer cells MiaPaca-2. In kind it is cell-based. The conditions noted are these: 1%. How it is done:
The antiproliferative activity of the lipid systems (RLO, RLO+MO and GP), formulations with incorporated SRE (RLO+MO+9% SRE and GP+9% SRE) and (digested and non-digested) non-delivered SRE was evaluated in human pancreatic cancer cell cultures (line MiaPaca-2) by means of the MTT method.
Three independent experiments were performed with different cell strains and on different days. The trend observed in terms of the effect of treatments on cell viability was similar in the 3 experiments.
The parameter used to assess the effect of a compound on cell viability is the mean inhibitory concentration (IC50), which is the product concentration inhibiting cell viability by 50%, such that the lower the IC50 of a compound is, the greater its effect will be.

Take `O=C1CCCC1` [cyclopentanone]: the “viability of treated cells” value is “did not change”.
